For 25 compounds, IC50 results are on record in patent US6984649B1, “Pyridine derivatives” (Bayer Aktiengesellschaft, priority 2000, dated 2006).

Where a name gives a salt, the structure may show the parent alone. Where only a bound is given, the exact number is not on record here.

In general, IC50 refers to the point on the concentration scale where inhibition reaches its midpoint.

The test system of this test is A549 human lung epithelium cell line. As to the kind of experiment: RANTES production in response to TNF-α from A549 cells. Format: cell-based. As to conditions: Homo sapiens, A549, A549 cells, 100 ng/ml TNF-α, read-out: Cellular activity grade (A549) (Cellular IC50). A digest of the protocol: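 RANTES released into supernatant was measured by DELFIA-type sandwich immunoassay, Eu-labelled detection antibody, 340 nm excitation/615 nm emission, recombinant RANTES standard. Beforehand, cells seeded at 4×10^4/well received test compound (1% DMSO) for 1 h at 37 °C, followed by 24 h TNF-α (100 ng/ml) stimulation.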
As for `NC(Cc1ccccc1)c1cc(-c2ccccc2O)nc2c1COC(=O)N2` (stereo not shown) [Example 18-4/18-5, 5-(1-Amino-2-phenyl-ethyl)-7-(2-hydroxy-phenyl)-1,4-dihydro-pyrido[2,3-d][1,3]oxazin-2-one hydrochloride], the half-inhibitory concentration (IC50) was 1 to 10 µM. The value for `O=C1Nc2nc(-c3ccccc3O)cc(C3=CCCNC3)c2CO1` [Example 18-6] was < 1 µM; that for `Nc1nc(-c2c(O)cccc2OCc2ccccc2)cc2c1CN1CCCC2C1` (stereo not shown) [Example 20-1, 2-(6-amino-5,9-diazatricyclo[7.3.1.02,7]trideca-2,4,6-trien-4-yl)-3-(benzyloxy)phenol hydrochloride] was > 10 µM. Turning to `Nc1nc(-c2ccccc2O)cc2c1CN[C@@H]2Cc1ccccc1` [Example 20-2, 2-[(1R)-4-amino-1-benzyl-2,3-dihydro-1H-pyrrolo[3,4-d]pyridin-6-yl]phenol hydrochloride], the half-inhibitory concentration (IC50) fell in the range of 1 to 10 µM. As for `Nc1nc(-c2c(O)cccc2OCC2CC2)cc(C2CCCNC2)c1CSc1ccccc1` (stereo not shown) [Example 21-1, 2-[6-amino-5-[(phenylsulfanyl)methyl]-4-(3-piperidinyl)-2-pyridinyl]-3-(cyclopropylmethoxy)phenol hydrochloride], the IC50 was 1 to 10 µM.

Consider `Nc1nc(-c2c(O)cccc2OCC2CC2)cc(C2CCNCC2)c1Cn1ccnc1` [Example 21-2, 2-[6-amino-5-(1H-imidazol-1-ylmethyl)-4-(4-piperidinyl)-2-pyridinyl]-3-(cyclopropylmethoxy)phenol hydrochloride], for which the half-maximal inhibitory concentration (IC50) was < 1 µM. The value for `Nc1nc(-c2c(O)cccc2OCC2CC2)cc(C2CCNCC2)c1COc1ccccc1` [Example 21-3, 2-[6-amino-5-(phenoxymethyl)-4-(4-piperidinyl)-2-pyridinyl]-3-(cyclopropylmethoxy)phenol hydrochloride] was < 1 µM; that for `Nc1nc(-c2c(O)cccc2OCC2CC2)cc(C2CCNCC2)c1CON1C(=O)CCC1=O` [Example 21-4, 1-{[2-amino-6-[2-(cyclopropylmethoxy)-6-hydroxyphenyl]-4-(4-piperidinyl)-3-pyridinyl]methoxy}-2,5-pyrrolidinedione hydrochloride] was < 1 µM; that for `O=C1NCc2c(C3CCCNC3)cc(-c3ccccc3O)nc2N1` (stereo not shown) [Example 22-1, 7-(2-hydroxyphenyl)-5-(3-piperidinyl)-3,4-dihydropyrido[2,3-d]pyrimidin-2(1H)-one hydrochloride] was 1 to 10 µM. Take `O=C1NCc2c(C3CCCNC3)cc(-c3c(O)cccc3OCC3CC3)nc2N1` (stereo not shown) [Example 22-2, 7-[2-(cyclopropylmethoxy)-6-hydroxyphenyl]-5-(3-piperidinyl)-3,4-dihydro-1H-pyrido[2,3-d]-pyrimidin-2-one hydrochloride]: the IC50 is < 1 µM.

Regarding `O=C1NCc2c(C3CCNCC3)cc(-c3c(O)cccc3OCC3CC3)nc2N1` [Example 22-3, 7-[2-(cyclopropylmethoxy)-6-hydroxyphenyl]-5-(4-piperidinyl)-3,4-dihydro-1H-pyrido[2,3-d]pyrimidin-2-one hydrochloride], the 50% inhibitory concentration (IC50) is < 1 µM. As for `O=S1(=O)NCc2c(C3CCCNC3)cc(-c3ccccc3O)nc2N1` (stereo not shown) [Example 22-5, 2-[2,2-dioxido-5-(3-piperidinyl)-3,4-dihydro-1H-pyrido[2,3-c][1,2,6]thiadiazin-7-yl]phenol hydrochloride], the figure is 1 to 10 µM; as for `CC(=O)NCc1c(C2CCCNC2)cc(-c2c(O)cccc2OCC2CC2)nc1N` (stereo not shown) [Example 23-1, N-{[2-amino-6-[2-(cyclopropylmethoxy)-6-hydroxyphenyl]-4-(3-piperidinyl)-3-pyridinyl]methyl}acetamide hydrochoride], < 1 µM. As for `CCOC(=O)NCc1c(C2CCCNC2)cc(-c2c(O)cccc2OCC2CC2)nc1N` (stereo not shown) [Example 23-2, ethyl [2-amino-6-[2-(cyclopropylmethoxy)-6-hydroxyphenyl]-4-(3-piperidinyl)-3-pyridinyl]methylcarbamate hydrochloride], the figure is < 1 µM; as for `Nc1nc(-c2c(O)cccc2OCC2CC2)cc(C2CCCNC2)c1CNC(=O)NC1CCCCC1` (stereo not shown) [Example 23-3, N-{[2-amino-6-[2-(cyclopropylmethoxy)-6-hydroxyphenyl]-4-(3-piperidinyl)-3-pyridinyl]methyl}-N′-cyclohexylurea hydrochloride], < 1 µM. The value for `CC(=O)N1Cc2c(C3CCCNC3)cc(-c3c(O)cccc3OCC3CC3)nc2NC1=O` (stereo not shown) [Example 24-1, 3-acetyl-7-[2-(cyclopropylmethoxy)-6-hydroxyphenyl]-5-(3-piperidinyl)-3,4-dihydropyrido[2,3-d]pyrimidin-2(1H)-one hydrochloride] was < 1 µM; that for `Oc1cccc(OCC2CC2)c1-c1cc(C2CCCNC2)c2c(n1)NCCC2` (stereo not shown) [Example 28-01, 3-(cyclopropylmethoxy)-2-[4-(3-piperidinyl)-5,6,7,8-tetrahydro-1,8-naphthyridin-2-yl]phenol] was < 1 µM; that for `Nc1cc2c(C3CCCNC3)cc(-c3c(O)cccc3OCC3CC3)nc2[nH]c1=O` (stereo not shown) [Example 29-01, 3-amino-7-[2-(cyclopropylmethoxy)-6-hydroxyphenyl]-5-(3-piperidinyl)-1,8-naphthyridin-2(1H)-one hydrochloride] was < 1 µM. With `O=C(Nc1cc2c(C3CCCNC3)cc(-c3c(O)cccc3OCC3CC3)nc2[nH]c1=O)c1ccccc1` (stereo not shown) [Example 29-2, N-[7-[2-(cyclopropylmethoxy)-6-hydroxyphenyl]-2-oxo-5-(3-piperidinyl)-1,2-dihydro-1,8-naphthyridin-3-yl]benzamide hydrochloride], the half-maximal inhibitory concentration (IC50) was 1 to 10 µM.

`CC(=O)Nc1cc2c(C3CCCNC3)cc(-c3c(O)cccc3OCC3CC3)nc2[nH]c1=O` (stereo not shown) [Example 29-3, N-[7-[2-(cyclopropylmethoxy)-6-hydroxyphenyl]-2-oxo-5-(3-piperidinyl)-1,2-dihydro-1,8-naphthyridin-3-yl]acetamide hydrochloride]: the half-inhibitory concentration (IC50) is < 1 µM. In the case of `O=C(O)c1cc2c(C3CCCNC3)cc(-c3c(O)cccc3OCC3CC3)nc2[nH]c1=O` (stereo not shown) [Example 30-1, 7-(2-cyclopropylmethoxy-6-hydroxy-phenyl)-2-oxo-5-piperidin-3-yl-1,2-dihydro[1,8]naphthyridine-3-carboxylic acid hydrochloride], the IC50 is 1 to 10 µM. The value for `CCCNC(=O)c1cc2c(C3CCCNC3)cc(-c3c(O)cccc3OCC3CC3)nc2[nH]c1=O` (stereo not shown) [Example 31-1, 7-[2-(cyclopropylmethoxy)-6-hydroxyphenyl]-2-oxo-5-(3-pipedinyl)-N-propyl-1,2-dihydro-1,8-naphthyridine-3-carboxamide] was < 1 µM; that for `CS(=O)(=O)NC(=O)c1cc2c(C3CCCNC3)cc(-c3c(O)cccc3OCC3CC3)nc2[nH]c1=O` (stereo not shown) [Example 31-2, N-{[7-[2-(cyclopropylmethoxy)-6-hydroxyphenyl]-2-oxo-5-(3-piperidinyl)-1,2-dihydro-1,8-naphthyridin-3-yl]carbonyl}methanesulfonamide hydrochloride] was 1 to 10 µM; that for `Nc1ncnc2nc(-c3c(O)cccc3OCC3CC3)cc(C3CCCNC3)c12` (stereo not shown) [Example 32-1, 2-[4-amino-5-(3-piperidinyl)pyrido[2,3-d]pyrimidin-7-yl]-3-(cyclopropylmethoxy)phenol hydrochloride] was 1 to 10 µM. As for `N#Cc1ccc(-c2ccccc2O)nc1N` [Example 33-1, 2-amino-6-(2-hydroxyphenyl)nicotinonitrile], the figure is 1 to 10 µM.
